Reference: publication PMC11243693, “Synthesis and Biological Evaluation of New Compounds with Nitroimidazole Moiety” (Molecules, 2024)
≈ marks a conversion by molar mass, not a printed value. Blank lines part the entries; values can stand above or below the molecule they belong to.

Tests used:
A-549 cells = experiment: MTT assay, A-549 cells; assay type: cell-based, human; conditions: A-549 human lung carcinoma, MTT, 24 h, mean SD
Experimental: (§1) Colon cancer (SW480), breast adenocarcinoma (MDA-MB-231), lung carcinoma (A-549), prostate cancer (PC3), and immortal keratinocyte (HaCaT) cell lines of human origin were acquired from the American Type Culture Collection (ATCC). The recommended culture media and protocols provided by ATCC were as follows: SW480 were cultured in Minimum Essential Medium (MEM), MDA-MB-231, A-549, and HaCaT cells were cultured in Dulbecco’s Modified Eagle Medium (DMEM), while PC3 was cultured in Roswell Park Memorial Institute Medium (RPMI). The culture media were supplemented with 10% fetal bovine serum (FBS), penicillin (100 U/mL), and streptomycin (100 μg/mL). Cells were maintained in a humidified incubator at 37 °C with 5% CO2. Passaging was carried out upon reaching 80–90% confluence using 0.25% trypsin (Gibco Life Technologies, New York, NY, USA) treatment prior to experimentation.
(§2) Cell viability was assessed utilizing the MTT assay, which relies on the conversion of 3-(4,5-dimethylthiazol-2-yl)-2,5-diphenyltetrazolium bromide salt (MTT) to formazan crystals by mitochondrial dehydrogenases in viable cells. Initially, cells were plated in 96-well plates at a density of 1 × 10^4 cells per well and allowed to attach for 24 h at 37 °C in a CO2 incubator. Subsequently, the culture medium was replaced with fresh medium containing various concentrations of the test compounds (ranging from 1 to 100 μM), and cells were further cultured for 24 h at 37 °C in a CO2 incubator. Control wells were left untreated for comparison. After the incubation period, MTT solution (0.5 mg/mL in serum-free medium) was added to each well, followed by a 4-h incubation at 37 °C in a CO2 incubator. The medium was then aspirated, and the formazan crystals were dissolved by adding a mixture of isopropanol and DMSO (1:1). The absorbance of the resulting solution was measured at 570 nm using a UVM 340 reader (ASYS Hitech GmbH, Seekirchen am Wallersee, Austria). IC50 values were determined using GraphPad software (GraphPad Prism 8 Software).

MDA-MB-231 cells = experiment: MTT assay, MDA-MB-231 cells; assay type: cell-based, human; conditions: MDA-MB-231 human breast adenocarcinoma, MTT, 24 h, mean SD
Experimental: as §1, §2

HaCaT cells = experiment: MTT assay, HaCaT normal cells; assay type: cell-based; conditions: HaCaT human immortal keratinocyte (normal cells), 24 h, mean SD
Experimental: as §1, §2

SW620 cells = experiment: MTT assay, SW620 cells; assay type: cell-based, human; conditions: SW620 human metastatic colon cancer, MTT, 24 h, mean SD
[1] = system: Staphylococcus epidermidis ATCC 12228; experiment: Broth microdilution, S. epidermidis ATCC 12228; assay type: cell-based
Summary of the method: (§3)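 MIC: A570 after 18 ± 2 h, 35 ± 2 °C. Medium: MH broth (bacterium) or MH + 2% glucose (yeasts). Serial 2-fold dilutions of compound, top solution 1000 µg/mL. Inoculum: 0.5 McFarland suspension diluted 10×. MBC/MFC: subculture onto MHA or MHA + 2% glc, 99.9% growth inhibition.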

[2] = system: Staphylococcus aureus ATCC 25923; experiment: Broth microdilution, S. aureus ATCC 25923; assay type: cell-based
Summary of the method: as §3

[3] = system: Candida glabrata ATCC 90030; experiment: Broth microdilution, C. glabrata ATCC 90030; assay type: cell-based
Summary of the method: (§4)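 EUCAST broth microdilution with twofold dilutions from a 1000 µg/mL starting solution, in Mueller-Hinton broth for B. cereus or Mueller-Hinton plus 2% glucose for Candida. Inoculum was a 10-fold diluted 0.5 McFarland suspension. After 18 ± 2 h at 35 ± 2 °C, MIC was read by A570; MBC/MFC by subculture showing 99.9% kill.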

[4] = system: Candida tropicalis ATCC 1369; experiment: Broth microdilution, C. tropicalis ATCC 1369; assay type: cell-based
Summary of the method: as §4

Candida auris CDC B11903 = experiment: Broth microdilution, C. auris CDC B11903; assay type: cell-based
Summary of the method: as §4

[5] = system: Candida krusei ATCC 14243; experiment: Broth microdilution, C. krusei ATCC 14243; assay type: cell-based
Summary of the method: as §4

[6] = system: Staphylococcus aureus ATCC 43300 methicillin-resistant MRSA; experiment: Broth microdilution, S. aureus ATCC 43300 MRSA; assay type: cell-based
Summary of the method: as §3

Candida spp. = experiment: Broth microdilution, Candida spp.; assay type: cell-based; conditions: range over both strains and the listed compounds
Experimental: The antibacterial activity of the obtained thiosemicarbazides and hydrazide–hydrazones was determined by evaluating their ability to inhibit microbial growth in vitro using the broth microdilution method, according to the guidelines of the European Committee on Antimicrobial Susceptibility Testing (EUCAST). The method involved the preparation of microbial suspensions with a standardized density of 0.5 on the McFarland scale (equivalent to 1.5 × 10^8 colony-forming units/mL for bacteria and […] for fungi). A solution of the test substances was then prepared (initial concentration 1000 µg/mL, diluted in sterile Mueller-Hinton broth for bacteria or Mueller-Hinton with 2% glucose for fungi). The test was carried out in 96-well polystyrene flat-bottom plates (Medlab, Poland) with 100 µL of appropriate sterile microbiological medium in each well. The first wells were filled with 200 µL of the test substance, diluted to the initial concentration, and then double-decreasing dilutions were made under aseptic conditions using an automatic pipette. The final step was the addition of a 10-fold diluted microbial suspension of 2 µL. At the same time, the following controls were included: (a) medium control (100 µL of sterile medium without microorganisms added), (b) microbial viability control, (c) test substance control (dilutions without added micro-organisms), (d) positive control of the drug used in the clinic. The plates thus prepared were incubated for 18 ± 2 h at 35 ± 2 °C under conditions optimal for the growth of the test microorganisms. After incubation, the spectrophotometric absorbance at 570 nm in each well of the plate was read. The aim of this part of the study was to determine two parameters: the minimum inhibitory concentration (MIC) and the minimum bactericidal or fungicidal concentration (MBC/MFC) of the test compound. […] The MBC value was determined by adding 5 µL of the contents of each well of the plate to solid sterile MHA or MHA + 2%glc medium for bacteria and fungi, respectively. The area on the plate where 99.9% inhibition of microbial growth was observed indicated the lethal concentration. In addition, the quotient MBC(MFC)/MIC could be determined to assess the nature of the activity of the test substance. If MBC(MFC)/MIC was <4, the test substance was bactericidal/fungicidal, whereas if MBC(MFC)/MIC was ≥4, it was bacteriostatic/fungistatic. Amoxicillin (Glentham Life Sciences, USA) and nystatin (Glentham Life Sciences, USA) were used as the controls for this assay.
The test was performed either on bacteria, comprising: Gram-positive (Staphylococcus aureus ATCC 25923, Staphylococcus aureus ATCC 6538, Staphylococcus aureus ATCC 43300 methicillin-resistant MRSA, Staphylococcus epidermidis ATCC 12228, Micrococcus luteus ATCC 10240, Bacillus subtilis ATCC 6633, Bacillus cereus ATCC 10876) and Gram-negative (Escherichia coli ATCC 25922, Pseudomonas aeruginosa ATCC 27853, Proteus mirabilis ATCC 12453, Klebsiella pneumoniae ATCC 13883) or yeast (Candida parapsilosis ATCC 22019, Candida glabrata ATCC 90030, Candida krusei ATCC 14243, Candida glabrata ATCC 15126, Candida tropicalis ATCC 1369, Candida auris CDC B11903, Candida lusitaniae ATCC 3449) reference strains from the American Type Culture Collection (ATCC) or the Centers for Disease Control and Prevention (CDC).

[7] = system: Candida parapsilosis ATCC 22019; experiment: Broth microdilution, C. parapsilosis ATCC 22019; assay type: cell-based
Summary of the method: as §4

[8] = system: Micrococcus luteus ATCC 10240; experiment: Broth microdilution, M. luteus ATCC 10240; assay type: cell-based
Summary of the method: as §3

[9] = system: Candida lusitaniae ATCC 3449; experiment: Broth microdilution, C. lusitaniae ATCC 3449; assay type: cell-based
Summary of the method: as §4

[10] = system: Bacillus cereus ATCC 10876; experiment: Broth microdilution, B. cereus ATCC 10876; assay type: cell-based
Summary of the method: as §4

[11] = system: Staphylococcus aureus ATCC 6538; experiment: Broth microdilution, S. aureus ATCC 6538; assay type: cell-based
Summary of the method: as §3

[12] = system: Bacillus subtilis ATCC 6633; experiment: Broth microdilution, B. subtilis ATCC 6633; assay type: cell-based; conditions: for MBC/MIC Ratio: <4 bactericidal, ≥4 bacteriostatic
Summary of the method: as §3

[13] = system: Candida glabrata ATCC 15126; experiment: Broth microdilution, C. glabrata ATCC 15126; assay type: cell-based
Summary of the method: as §4

Gram-positive bacteria = experiment: Broth microdilution, Gram-positive bacteria; assay type: cell-based; conditions: strains as named in the sentence
Experimental: The antibacterial activity of the obtained thiosemicarbazides and hydrazide–hydrazones was determined by evaluating their ability to inhibit microbial growth in vitro using the broth microdilution method, according to the guidelines of the European Committee on Antimicrobial Susceptibility Testing (EUCAST). The method involved the preparation of microbial suspensions with a standardized density of 0.5 on the McFarland scale (equivalent to 1.5 × 10^8 colony-forming units/mL for bacteria and […] for fungi). A solution of the test substances was then prepared (initial concentration 1000 µg/mL, diluted in sterile Mueller-Hinton broth for bacteria or Mueller-Hinton with 2% glucose for fungi). The test was carried out in 96-well polystyrene flat-bottom plates (Medlab, Poland) with 100 µL of appropriate sterile microbiological medium in each well. […] After incubation, the spectrophotometric absorbance at 570 nm in each well of the plate was read. […] The MBC value was determined by adding 5 µL of the contents of each well of the plate to solid sterile MHA or MHA + 2%glc medium for bacteria and fungi, respectively. […] In addition, the quotient MBC(MFC)/MIC could be determined to assess the nature of the activity of the test substance. […]

[14] = Staphylococcus epidermidis, ATCC12228
[15] = Staphylococcus aureus, ATCC25923

Compound: N.N.[Cl][Pt][Cl] [Cisplatin, cisplatin]
- IC50 (A-549 cells): 3.2 ± 1.24 µM
- IC50 (MDA-MB-231 cells): 7.8 ± 0.98 µM
- IC50 (HaCaT cells): 6.3 ± 0.7 µM
- IC50 (SW620 cells): 6.7 ± 1.1 µM

- MIC ([1]; Se 12228): 1000 µg/mL (≈ 2580 µM)
- MIC ([2]; Sa 25923): 500 µg/mL (≈ 1290 µM)
- MIC ([3]; Cg 90030): >1000 µg/mL
- MIC ([4]; Ct 1369): >1000 µg/mL
- MIC (Candida auris CDC B11903; Ca B11903): >1000 µg/mL
- MIC ([5]; Ck 14243): >1000 µg/mL
- MIC ([6]; Sa 43300 MRSA): >1000 µg/mL
- MIC (range, C. parapsilosis ATCC 22019 and C. tropicalis ATCC 1369) (Candida spp.): 62.5 to 1000 µg/mL
- MIC ([7]; Cp 22019): 500 µg/mL (≈ 1290 µM)
- MIC ([8]; Ml 10240): 500 µg/mL (≈ 1290 µM)
- MIC ([9]; Cl 3449): >1000 µg/mL
- MIC ([10]; Bc 10876): 1000 µg/mL (≈ 2580 µM)
- MIC ([11]; Sa 6538): >1000 µg/mL
- MIC ([12]; Bs 6633): 500 µg/mL (≈ 1290 µM)
- MIC ([13]; Cg 15126): >1000 µg/mL
Compound: Cn1cc([N+](=O)[O-])nc1C(=O)NNC(=S)Nc1cccc(C(F)(F)F)c1 [Compound 13]
- MBC ([1]; Se 12228): >1000 µg/mL
- MBC ([2]; Sa 25923): >1000 µg/mL
- MBC (range, C. parapsilosis ATCC 22019 and C. tropicalis ATCC 1369) (Candida spp.): 500 to 1000 µg/mL
- MFC ([7]; Cp 22019): 1000 µg/mL (≈ 2580 µM)
- MFC/MIC Ratio ([7]; Cp 22019, <4 fungicidal, ≥4 fungistatic): 2
- MBC ([8]; Ml 10240): >1000 µg/mL
- MBC ([10]; Bc 10876): >1000 µg/mL
- MBC ([12]; Bs 6633): 500 µg/mL (≈ 1290 µM)
- MBC/MIC Ratio ([12]; Bs 6633): 1

Compound: Cn1cc([N+](=O)[O-])nc1C(=O)NNC(=S)Nc1ccc([N+](=O)[O-])cc1 [Compound 18, 1-[(1-methyl-4-nitroimidazol-2-yl)carbonyl]-4-(4-nitrophenyl)-thiosemicarbazide]
- MBC [1, 14]: > 1000 µg/mL
- MIC [1, 14]: 1000 µg/mL (≈ 2740 µM)
- MBC [2, 15]: > 1000 µg/mL
- MIC [2, 15]: 500 µg/mL (≈ 1370 µM)
- MIC ([3]; Nakaseomyces glabratus, ATCC90030): > 1000 µg/mL
- MFC ([4]; Candida tropicalis, ATCC1369): > 1000 µg/mL
- MIC ([4]; Candida tropicalis, ATCC1369): 500 µg/mL (≈ 1370 µM)
- MIC (Candida auris CDC B11903; Candidozyma auris, CDCB11903): > 1000 µg/mL
- MIC (range or value for several Gram-positive strains) (Gram-positive bacteria): 500 to 1000 µg/mL
- MIC ([5]; Pichia kudriavzevii, ATCC14243): > 1000 µg/mL
- MIC ([6]; Staphylococcus aureus): > 1000 µg/mL
- MIC ([7]; Lodderomyces parapsilosis, ATCC22019): > 1000 µg/mL
- MBC ([8]; Micrococcus luteus, ATCC10240): 1000 µg/mL (≈ 2740 µM)
- MIC ([8]; Micrococcus luteus, ATCC10240): 500 µg/mL (≈ 1370 µM)
- MBC/MIC Ratio ([8]; Ml 10240, <4 bactericidal, ≥4 bacteriostatic): 2
- MIC ([9]; Clavispora lusitaniae, ATCC3449): > 1000 µg/mL
- MBC ([10]; Bacillus cereus, ATCC10876): 1000 µg/mL (≈ 2740 µM)
- MIC ([10]; Bacillus cereus, ATCC10876): 1000 µg/mL (≈ 2740 µM)
- MBC/MIC Ratio ([10]; Bc 10876, <4 bactericidal, ≥4 bacteriostatic): 1
- MIC ([11]; Staphylococcus aureus, ATCC6538): > 1000 µg/mL
- MBC ([12]; Bacillus subtilis, ATCC6633): 1000 µg/mL (≈ 2740 µM)
- MIC ([12]; Bacillus subtilis, ATCC6633): 1000 µg/mL (≈ 2740 µM)
- MBC/MIC Ratio ([12]; Bs 6633): 1
- MIC ([13]; Nakaseomyces glabratus, ATCC15126): > 1000 µg/mL
